Columns and labels:
[1] = system: mouse; experiment: Mouse pentylenetetrazol infusion test; format: in vivo; conditions: 1 h, read-out: ED50 in pentylenetetrazol infusion test (time to second twitch)
[2] = molecular target: recombinant human brain type IIA Na+ channel expressed in Chinese hamster ovary cells (Homo sapiens, UniProt Q99250); experiment: Whole-cell voltage-clamp on voltage-gated sodium channels
[3] = system: rat; experiment: Rat intraplantar carrageenan model of hyperalgesia and inflammation; format: in vivo; conditions: oral; for ED50: Rattus norvegicus, 30 minutes prior to carrageenan (100 μl of 2% intraplantar), read at three hours, read-out: ED50 for inhibition of the carrageenan-induced reduction in weight bearing
Description: Three hours after intraplantar carrageenan administration (100 μl of 2%) in the rat there is a reduction in weight bearing on the inflamed paw and an increase in paw volume consistent with acute hyperalgesia and inflammation.

[4] = system: Male C57BL/6 mice; experiment: Mouse MPTP induced neurotoxicity (striatal dopamine depletion); format: in vivo; conditions: 30 minutes before each MPTP injection, striata seven days after MPTP
Description: The mouse MPTP model is generally used as a model of Parkinson's disease.
Male C57BL/6 mice received four intraperitoneal injections of MPTP.HCl (15 mg of free base per kg; Research Biochemicals) in saline at 2 hour intervals. Control mice received saline only. The test-compound was administered as four subcutaneous injections in olive oil at 2 hour intervals, 30 minutes before each MPTP injection.
Seven days after MPTP injection the mice were sacrificed and the striata dissected out, immediately frozen, and stored at −80° C. until analysis. On the day of assay issue samples were sonicated in 10 volume (wt./vol.) of 0.1 M perchloric acid containing 1.9 mM sodium hydrosulfite and 1.6 mg/ml DBA-HBr. After centrifugation (2800 g, 10 min at room temperature) and filtration (pore size 0.5 μm, Millipore), the supernatant was transferred to a vial and placed in the automatic sampler (M231XL, Gilson). Dopamine content was measured by high performance liquid chromatography. A compound of formula (I) produced 75% protection against dopamine depletion when dosed at 3 mg/kg (×4) and 98% protection when dosed at 10 mg/kg (×4).

[5] = system: male Han Wistar rats; experiment: Rat maximal electroshock test (MES); format: in vivo; conditions: oral, 2 hr prior to test; for ED50: Rattus norvegicus, suspension in 0.25% methylcellulose, 200 mA, 200 millisec, read-out: MES ED50 (hind limb extension); for therapeutic index (ratio of the ataxia ED50 and MES ED50): rat
Description: For example, male Han Wistar rats (150-200 grms) were dosed orally with a suspension of the test compound in 0.25% methylcellulose 2 hr prior to test. A visual observation is carried out just prior to testing for the presence of ataxia. Using auricular electrodes a current of 200 mA, duration 200 millisec, is applied and the presence or absence of hind limb extension noted.

Chain of recombinant human brain type IIA Na+ channel expressed in Chinese hamster ovary cells (Q99250 whole entry): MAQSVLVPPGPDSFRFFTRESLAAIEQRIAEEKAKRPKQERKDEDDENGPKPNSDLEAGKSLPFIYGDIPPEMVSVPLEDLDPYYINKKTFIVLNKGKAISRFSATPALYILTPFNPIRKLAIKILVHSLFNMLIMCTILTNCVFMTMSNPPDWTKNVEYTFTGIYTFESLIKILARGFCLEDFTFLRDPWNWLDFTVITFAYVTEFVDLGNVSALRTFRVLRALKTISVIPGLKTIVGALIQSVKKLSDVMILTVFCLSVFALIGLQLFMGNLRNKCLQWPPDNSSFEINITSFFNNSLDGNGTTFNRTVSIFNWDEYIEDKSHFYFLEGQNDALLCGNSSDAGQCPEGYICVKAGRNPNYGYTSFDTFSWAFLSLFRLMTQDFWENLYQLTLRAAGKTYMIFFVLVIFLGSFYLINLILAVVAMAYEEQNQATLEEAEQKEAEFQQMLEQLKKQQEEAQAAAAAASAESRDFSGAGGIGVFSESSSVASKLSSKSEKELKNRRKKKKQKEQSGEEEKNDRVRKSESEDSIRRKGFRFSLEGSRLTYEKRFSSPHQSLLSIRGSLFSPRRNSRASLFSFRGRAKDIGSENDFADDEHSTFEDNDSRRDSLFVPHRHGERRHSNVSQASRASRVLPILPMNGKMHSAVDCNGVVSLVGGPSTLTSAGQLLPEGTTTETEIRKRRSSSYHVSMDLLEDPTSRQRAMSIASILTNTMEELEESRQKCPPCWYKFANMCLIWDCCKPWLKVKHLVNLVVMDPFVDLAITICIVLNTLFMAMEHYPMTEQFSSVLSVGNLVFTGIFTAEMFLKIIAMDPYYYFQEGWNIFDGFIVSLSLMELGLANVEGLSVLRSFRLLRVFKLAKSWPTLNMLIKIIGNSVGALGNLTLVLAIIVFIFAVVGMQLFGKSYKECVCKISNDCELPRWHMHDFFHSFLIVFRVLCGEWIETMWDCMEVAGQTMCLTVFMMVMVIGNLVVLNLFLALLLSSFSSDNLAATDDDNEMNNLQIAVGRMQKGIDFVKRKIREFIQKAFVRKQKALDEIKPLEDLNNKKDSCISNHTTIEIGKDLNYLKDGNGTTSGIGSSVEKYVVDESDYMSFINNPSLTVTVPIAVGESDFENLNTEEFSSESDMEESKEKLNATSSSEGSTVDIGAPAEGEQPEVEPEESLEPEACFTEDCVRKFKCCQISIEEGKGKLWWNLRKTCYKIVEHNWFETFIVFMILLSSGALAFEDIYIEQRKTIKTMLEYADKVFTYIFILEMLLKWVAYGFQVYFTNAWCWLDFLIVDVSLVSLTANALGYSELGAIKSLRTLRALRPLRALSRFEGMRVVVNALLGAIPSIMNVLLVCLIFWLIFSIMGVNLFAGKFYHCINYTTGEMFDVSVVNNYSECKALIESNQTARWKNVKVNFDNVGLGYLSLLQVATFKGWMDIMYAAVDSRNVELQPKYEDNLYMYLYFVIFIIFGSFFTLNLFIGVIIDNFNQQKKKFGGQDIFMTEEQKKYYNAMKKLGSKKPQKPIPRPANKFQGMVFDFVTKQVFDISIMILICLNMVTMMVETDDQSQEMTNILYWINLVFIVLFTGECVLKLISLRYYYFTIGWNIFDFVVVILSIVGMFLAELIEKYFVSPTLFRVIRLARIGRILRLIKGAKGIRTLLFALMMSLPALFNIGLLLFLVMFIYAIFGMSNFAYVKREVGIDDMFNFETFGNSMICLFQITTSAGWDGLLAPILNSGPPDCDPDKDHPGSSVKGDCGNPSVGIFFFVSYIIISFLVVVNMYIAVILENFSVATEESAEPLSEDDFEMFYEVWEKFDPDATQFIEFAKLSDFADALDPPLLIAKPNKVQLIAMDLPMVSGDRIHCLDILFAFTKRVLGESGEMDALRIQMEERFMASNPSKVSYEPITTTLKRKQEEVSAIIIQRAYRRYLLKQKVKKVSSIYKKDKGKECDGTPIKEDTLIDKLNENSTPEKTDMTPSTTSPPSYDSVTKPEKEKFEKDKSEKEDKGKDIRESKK

Row | Structure (SMILES) | ED50 [1] | IC50 [2] | state selectivity (potency at inactivated state versus resting state) [2] | reduction in paw volume (anti-inflammatory activity) ([3]; 30 mg/kg, 30 minutes prior to carrageenan) | ED50 [3] | protection against dopamine depletion ([4]; 3 mg/kg (×4) subcutaneous) | protection against dopamine depletion ([4]; 10 mg/kg (×4) subcutaneous) | ED50 [5] | therapeutic index (ratio of the ataxia ED50 and MES ED50) [5]
1 | Nc1ncnnc1-c1cc(Cl)cc(Cl)c1Cl [compound of formula (I), 5-amino-6-[2,3,5-trichlorophenyl]-1,2,4-triazine] | 3.8 mg/kg | 785 µM | approximately 70 fold | 50% | 7.5 mg/kg | 75% | 98% | 1.7 mg/kg | 23.7
2 | Nc1nnc(-c2cccc(Cl)c2Cl)c(N)n1 [lamotrigine, 3,5diamino-6-(2,3dichlorophenyl)-1,2,4-triazine, reference compound] | 8.4 mg/kg | – | approximately 30 fold | – | 23.5 mg/kg | – | – | 6.1 mg/kg | 3.3

From patent publication US6465461B1, “Triazine compounds for treatment of CNS disorders” (SmithKline Beecham Corporation, priority 1997, dated 2002)
